Here are results for two molecules from PMC7367873, “Dissecting the sequence determinants for dephosphorylation by the catalytic subunits of phosphatases PP1 and PP2A” (Nature Communications, 2020).

For one assay, the system named is GAB2-pS210. Description: In vitro dephosphorylation of GAB2-pS210 (Western blot). It counts as biochemical, human. The settings on record: GAB2-pS210 relative to GAB2, Calyculin A 20 nM 12 min in HeLa Kyoto cells, recombinant PP1c 1 µM, 1 h at 30 °C in lysate. How it is done: pEGFP(C1)-14-3-3β or pCMV-GAB2-3FLAG was transfected into HeLa Kyoto cells as described in the respective section for 24 h. Cells were incubated with or w/o 20 nM Calyculin A (# 9902 S, Cell Signaling Technology) in complete growth media for 12 min. Cells were washed twice on ice with cold PBS and after addition of 500 µL lysis buffer (100 mM NaCl, 10 mM Tris, 0.1% IGEPAL, 1 mM EDTA, 1 mM EGTA, 20 nM Calyculin A, 1x cOmplete Mini protease inhibitor cocktail (Sigma), 2 mM DTT, 2 mM MnCl2) cells were scraped from plates, lysed by 10 pushes through an injection needle and the insoluble fraction was pelleted by centrifugation (10 min, 10^4 rcf, 4 °C). […] Beads were then washed three times with lysis buffer and samples were eluted in 1x SDS sample buffer by heating to 95 °C for 10 min and further analyzed by SDS PAGE for 14-3-3/GAB2 association and phosphorylation status of GAB2-pS210.
For SDS-PAGE, samples were loaded on NuPAGE™ 4-12% Bis-Tris protein gels (Invitrogen) and gel electrophoresis was performed at 180 V constant in 1x MOPS buffer. […] All blots were quantified using raw images and ImageLab software (v6.0.1, BioRad): Files were imported and analyzed without further modifications. […] The quantification was exported from the analysis table and measurements of background adjusted band volumes where used for further normalization steps and graphical depiction. […]

Assay [1] has as its system GAB2/GFP-14-3-3β interaction. The assay can be described thus: GAB2/14-3-3 binding assay (GFP-14-3-3β pull-down, Western blot). Further details: species or system human. As for the experimental part: pEGFP(C1)-14-3-3β or pCMV-GAB2-3FLAG was transfected into HeLa Kyoto cells as described in the respective section for 24 h. Cells were incubated with or w/o 20 nM Calyculin A (# 9902 S, Cell Signaling Technology) in complete growth media for 12 min. Cells were washed twice on ice with cold PBS and after addition of 500 µL lysis buffer (100 mM NaCl, 10 mM Tris, 0.1% IGEPAL, 1 mM EDTA, 1 mM EGTA, 20 nM Calyculin A, 1x cOmplete Mini protease inhibitor cocktail (Sigma), 2 mM DTT, 2 mM MnCl2) cells were scraped from plates, lysed by 10 pushes through an injection needle and the insoluble fraction was pelleted by centrifugation (10 min, 10^4 rcf, 4 °C). Supernatants were then subjected to incubation with 1 µM recombinant PP1c (if not indicated otherwise) or buffer for 1 h at 30 °C. […] Next, we subjected samples to immunoprecipitation/pull-down using 25 µL of α-FLAG M2 magnetic bead slurry (Sigma-Aldrich) or an equal volume of bead-coupled α-GFP nanobodies (EMBL PEPcore Core Facility) for 2 h at 4 °C. Beads were then washed three times with lysis buffer and samples were eluted in 1x SDS sample buffer by heating to 95 °C for 10 min and further analyzed by SDS PAGE for 14-3-3/GAB2 association and phosphorylation status of GAB2-pS210.
For SDS-PAGE, samples were loaded on NuPAGE™ 4-12% Bis-Tris protein gels (Invitrogen) and gel electrophoresis was performed at 180 V constant in 1x MOPS buffer. Samples were transferred onto CN blotting membranes (0.45 µm, neoLab) by wet blotting. Membranes were stained using Ponceau, followed by blocking with Tris-buffered saline with 0.1% Tween (TBS-T) containing 5% (w/v) non-fat milk for 45 min at room temperature. After three washes (5 min), membranes were then incubated with the following antibodies in TBS-T with 5% BSA overnight at 4 °C: α-GFP (1:2000, Abcam, ab6556), α-GAB2 (1:1000, CST, #3239), α-GAB2-pS210 (1:250, Symansis, customized purification), α-FLAG (1:1000, M2, Sigma-Aldrich, F3165), α-pan14-3-3 (1:500, SCBT, sc-629), α-PP1 (1:1000, SCBT, sc-7482), α-PP2A (1:1000, SCBT, sc-130237) or α-6His (1:2000, Abcam, ab9108). Afterwards blots were washed three times in TBS-T and incubated with goat anti-mouse IgG-peroxidase conjugate (1:2500, Sigma, A0168), donkey anti-rabbit IgG-horseradish peroxidase (HRP) conjugate (1:2500, GE Healthcare, GENA934), or rabbit anti-sheep IgG (H + L) HRP conjugate (1:2500, Thermo Fisher Scientific, 61-8620) for 2 h at room temperature. […] All blots were quantified using raw images and ImageLab software (v6.0.1, BioRad): Files were imported and analyzed without further modifications. […] The quantification was exported from the analysis table and measurements of background adjusted band volumes where used for further normalization steps and graphical depiction. […]

A further assay deals with PP1/PP2A. The settings on record: 20 nM Calyculin A in cell culture medium and lysis buffer; ref PMID 30338897; cited from earlier work. From the text:
page 8: an adjusted p-value <0.01 are highlighted in bold in the heat-map comparing PP1c/PP2Ac. […] Furthermore, this new comparison also brought to our attention an apparently very strong differential effect of Pro in +1. We have therefore synthesized the Cterm peptide AAAApTPFGAK. Like in the case of ba ...

Assay [2] deals with mKate2-GAB2 localization in HeLa Kyoto cells. Description: GAB2 recruitment to the plasma membrane, live-cell confocal microscopy, HeLa Kyoto. It counts as cell-based, human. The settings on record: starved, 5 min, EGF 100 ng/mL, PDP-Nal/PDPm-Nal 50 µM, n = 44/56/31 cells for EGF/PDP-Nal/PDPm-Nal. As for the experimental part:
(§1) The cells were seeded on 8-well ibiTreat µslides (Ibidi) and transfected as described in the respective section. In order to serum-starve cells for 45 min to 1 h before imaging, cells were washed twice with warm PBS and cultivated in 200 µL DMEM without FBS and phenol red (Gibco) supplemented with 1 g/L L-glutamine and 1% penicillin/streptomycin. For imaging, cells were then mounted in an Okolab stage incubator system (37 °C, 5% CO2 using an H101-CRYO-BL temperature controller, CO2-O2 UNIT-BL gas controller, H101-HM active humidity controller and incubation chamber H101-NIKON-TI-S-ER). All images were acquired with the A1R Confocal Scanning System equipped on a Nikon Ti-E inverted microscope installed with an Apo TIRF 100x DIC N2 1.49 NA Oil objective. […] Images were acquired using the GaAsP detectors controlled with the NIS Elements 4.50 operating software. Time-lapse-experiments consisted of an image acquisition interval of 15 s for at least 12 min for each sample condition separately using an exposure time of 0.5 frames per second. Cells were treated after frame 3 by adding 100 µL of starvation media (see above) with 300 ng/mL EGF (Gibco) or 150 µM PDP(m)-Nal resulting in final concentrations of 100 ng/mL for EGF and 50 µM for PDPs.
For image analysis, microscopy files were loaded into Fiji v2.0.0-rc-34/1.50a. […]

For assay [3], the system named is mKate2-GAB2 localization in Caco-2 BBe1 cells. The assay can be described thus: GAB2 recruitment to the plasma membrane, live-cell confocal microscopy, Caco-2 BBe1. Format: cell-based, human. The settings on record: Caco-2 BBe1, starved, 12 min; EGF 100 ng/mL; PDP-Nal/PDPm-Nal 50 µM; n = 19/13/13 cells for EGF/PDP-Nal/PDPm-Nal. As for the experimental part: as §1, with “Cells were treated after frame 3 by adding 100 µL of starvation media (see above) with 300 ng/mL EGF (Gibco) or 150 µM PDP(m)-Nal resulting in final concentrations of 100 ng/mL for EGF and 50 µM for PDPs.” left out
(§2) Supplementary Figure 8. […] For Caco-2 BBe1 the following number (n) of cells were analyzed: 19 (EGF), 13 (PDP-Nal), 13 (PDPm-Nal); for SW-480: 20 (EGF), 19 (PDP-Nal), […]

Assay [4] deals with mKate2-GAB2 localization in SW-480 cells. The assay can be described thus: GAB2 recruitment to the plasma membrane, live-cell confocal microscopy, SW-480. Format: cell-based, human. The settings on record: SW-480, starved, 12 min; EGF 100 ng/mL; PDP-Nal/PDPm-Nal 50 µM; n = 20/19/26 cells for EGF/PDP-Nal/PDPm-Nal. How it is done:
as §1, with “Cells were treated after frame 3 by adding 100 µL of starvation media (see above) with 300 ng/mL EGF (Gibco) or 150 µM PDP(m)-Nal resulting in final concentrations of 100 ng/mL for EGF and 50 µM for PDPs.” left out
as §2

Turning to `COC[C@@H]([C@H](O)[C@H](O)C(=O)NCC[C@H](C)c1nc(/C=C/C[C@@H]2O[C@]3(C[C@@H](O)[C@@H]2C)O[C@H]([C@H](C[C@H](O)[C@H](C)[C@H](O)[C@H](C)/C=C(C)/C(C)=C/C=C/C(C)=C\C#N)OC)[C@H](OP(=O)(O)O)C3(C)C)co1)N(C)C` [Calyculin A, reference compound], in the assay on GAB2-pS210, the “p-level of GAB2 pS210” value is “increased”. Besides, in assay [1] (Calyculin A 20 nM in cells, recombinant PP1c in lysate 1 h at 30 °C, PP1c-concentration-dependent, three independent experiments), the “interaction of GAB2 with overexpressed GFP-14-3-3β” value is reported as “strongly increased”. In addition, the “interaction of GAB2 with GFP-14-3-3β, PP1c pre-inhibited” value in assay [1] (recombinant PP1c mixed with equimolar Calyculin A for 5–10 min before addition to lysate) is listed as “abolishes the effect”. The “stabilization of phosphorylation of PP1/PP2A substrate sites (such as Ser259 of CRAF/Raf-1)” value in the assay with PP1/PP2A was “stabilize”.
With EGF: epidermal growth factor (Gibco), the “GAB2 recruitment to the plasma membrane” value in assay [2], in assay [3] and in assay [4] was “GAB2 recruitment to the plasma membrane” throughout.
